Reference: patent US12325697B2 (Nimbus Clio, Inc., priority 2021, dated 2025)

Biological target: Recombinant human Cbl-b (aa 36-427) (Homo sapiens (Human), UniProt Q13191)
Test: Cbl-b Biochemical Assay (TR-FRET)
Conditions: read-out: TR-FRET hCbl-b IC50
Description: Recombinant human Cbl-b (aa 36-427) was expressed in E. coli, purified and biotinylated in vitro. The protein was diluted to 12 nM in freshly prepared assay buffer consisting of 50 mM HEPES, pH 7.0, 100 mM NaCl, 5 mM MgCl2, 0.01% Triton-X 100, 0.01% BSA and 1 mM DTT. Recombinant human Src (aa 254-536)-[…]-Zap-70 (aa 281-297) fusion protein was expressed in E. coli and purified. Protein was diluted in assay buffer to 2-5 nM and supplemented with ATP to 1 mM. Fluorescein-BODIPY labeled UBE[…]([…])-Ub was prepared by conjugating ubiquitin (Ub) labeled at its N-terminus with Fluorescein-BODIPY maleimide (ThermoFisher Catalog no B10250) to E. coli expressed and purified UBE[…]([…]) [see Dou et al Nature Structural and Molecular Biology 8: 982-987, 2013]. Recombinant human UBE2D2([…]) was expressed in E. coli, purified and ubiquitinated and Bodipy labelled in vitro. Protein was diluted to 200 nM in assay buffer without MgCl2 (or Cisbio PPI buffer). Streptavidin-Terbium was added to 2 nM and EDTA to 10 mM, to provide a binding assay mix. Compounds were dissolved in DMSO and diluted to prepare a ten-point dilution series. 100 nl of each compound concentration was dispensed in duplicate in a 384 well black assay plate using acoustic dispensing. Wells for maximum signal controls received 100 nl of DMSO only and wells for minimum signal controls received 100 nl of a reference inhibitor compound at a final assay concentration of […] to produce 100% inhibition. 5 μl of diluted Cbl-b enzyme was added to all wells of the assay plate and incubated at RT for 30-60 min. The enzyme assay was initiated by addition of 5 μl of Src-Zap/ATP mix to all wells, and the plate incubated at RT for 60 min. The enzyme reaction was terminated and the binding reaction was initiated by adding 10 μl of binding assay mix to all wells and incubating the plate at RT for 60 min prior to assay read. Final assay conditions consisted of 6 nM Cbl-b, 1-2.5 nM Src-Zap70, 0.5 mM ATP, 1% (v/v) DMSO (enzyme reaction) and 100 nM UBE2D2([…])-Ub-FL-BODIPY, 5 mM EDTA, 1 nM Streptavidin-Tb (binding reaction). The HTRF assay signal was measured at 520 nm on an Envision plate reader, with reference signal at 485 or 620 nm. Data was normalized using maximum and minimum assay controls: % Inhibition=100-(100*((maximum control)-unknown)/(maximum control-minimum control)). A 4-parameter dose-response equation was used to fit the normalized dose-response data and derive an IC50 for test compounds.

Sequence of Recombinant human Cbl-b (aa 36-427) (Q13191 36-427): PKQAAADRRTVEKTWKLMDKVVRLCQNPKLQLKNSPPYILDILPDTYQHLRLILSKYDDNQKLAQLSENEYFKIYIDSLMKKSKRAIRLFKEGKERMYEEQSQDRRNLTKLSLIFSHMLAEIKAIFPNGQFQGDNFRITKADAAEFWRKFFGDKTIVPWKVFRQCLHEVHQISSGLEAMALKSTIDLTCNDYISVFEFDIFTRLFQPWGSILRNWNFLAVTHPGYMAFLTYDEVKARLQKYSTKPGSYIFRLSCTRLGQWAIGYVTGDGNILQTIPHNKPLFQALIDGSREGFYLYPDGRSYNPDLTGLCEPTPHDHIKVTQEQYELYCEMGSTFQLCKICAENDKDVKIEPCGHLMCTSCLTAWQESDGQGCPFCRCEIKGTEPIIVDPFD

SMILES	IC50 [µM]
Cn1cnnc1-c1ccccc1-c1cccc(N2Cc3c(cc(CN[C@H]4CCC[C@H]4O)cc3C(F)(F)F)C2=O)c1 [AA-2, 6-((((1S,2R)-2-Hydroxycyclopentyl)amino)methyl)-2-(2′-(4-methyl-4H-1,2,4-triazol-3-yl)-[1,1′-biphenyl]-3-yl)-4-(trifluoromethyl)isoindolin-1-one]	≤ 0.2
Cn1cnnc1-c1nccn1-c1cccc(N2Cc3c(cccc3C(F)(F)F)C2=O)c1 [AAA-8, 2-[3-[2-(4-Methyl-1,2,4-triazol-3-yl)imidazol-1-yl]phenyl]-4-(trifluoromethyl)-3H-isoindol-1-one]	10 to 50
Cn1cnnc1-c1cnn(C)c1-c1cccc(N2Cc3c(cc(CN4CCC5(CC5)C4)cc3C(F)(F)F)C2=O)c1 [AAD-1, 6-((5-Azaspiro [2.4]heptan-5-yl)methyl)-2-(3-(1-methyl-4-(4-methyl-4H-1,2,4-triazol-3-yl)-1H-pyrazol-5-yl)phenyl)-4-(trifluoromethyl)isoindolin-1-one]	≤ 0.2
Cn1cnnc1-c1cnn(C)c1-c1cccc(NC(=O)c2cc(=O)n(C)c(C3CC3)n2)c1 [AAE-6, 2-Cyclopropyl-1-methyl-N-[3-[2-methyl-4-(4-methyl-1,2,4-triazol-3-yl)pyrazol-3-yl]phenyl]-6-oxopyrimidine-4-carboxamide]	10 to 50
CCn1cc(-c2nncn2C)c(-c2cccc(N3Cc4c(cccc4C(F)(F)F)C3=O)c2)n1 [AAF-9, 2-[3-[1-Ethyl-4-(4-methyl-1,2,4-triazol-3-yl)pyrazol-3-yl]phenyl]-4-(trifluoromethyl)-3H-isoindol-1-one]	10 to 50
Cn1cnnc1-c1ccc(C(F)(F)F)cc1-c1cccc(N2Cc3c(cccc3C(F)(F)F)C2=O)c1 [AAG-8, 2-(2′-(4-Methyl-4H-1,2,4-triazol-3-yl)-5′-(trifluoromethyl)-[1,1′-biphenyl]-3-yl)-4-(trifluoromethyl)isoindolin-1-one]	10 to 50
CCOc1cc(-c2c(-c3nncn3C)cnn2C)cc(N2Cc3c(cccc3C(F)(F)F)C2=O)c1 [AAI-7, 2-(3-Ethoxy-5-(1-methyl-4-(4-methyl-4H-1,2,4-triazol-3-yl)-1H-pyrazol-5-yl)phenyl)-4-(trifluoromethyl) isoindolin-1-one]	0.2 to 1
Cn1cnnc1-c1ccc(Br)cc1-c1cccc(N2Cc3c(cccc3C(F)(F)F)C2=O)c1 [AAJ-9, 2-(5′-Bromo-2′-(4-methyl-4H-1,2,4-triazol-3-yl)-[1,1′-biphenyl]-3-yl)-4-(trifluoromethyl)isoindolin-1-one]	1 to 10
Cn1cnnc1-c1ccccc1-c1cccc(N2Cc3c(cccc3C(F)(F)F)C2=O)c1 [AAK-2, 2-(2′-(4-Methyl-4H-1,2,4-triazol-3-yl)-[1,1′-biphenyl]-3-yl)-4-(trifluoromethyl)isoindolin-1-one]	0.2 to 1
Cn1cc(-c2nncn2C)c(-c2cccc(N3Cc4c(cccc4C(F)(F)F)C3=O)c2)n1 [AAL-8, 2-[3-[1-Methyl-4-(4-methyl-1,2,4-triazol-3-yl)pyrazol-3-yl]phenyl]-4-(trifluoromethyl)-3H-isoindol-1-one]	10 to 50
Cn1cnnc1-c1cnn(C)c1-c1ccnc(N2Cc3c(cccc3C(F)(F)F)C2=O)c1 [AAM-3, 2-(4-(1-Methyl-4-(4-methyl-4H-1,2,4-triazol-3-yl)-1H-pyrazol-5-yl)pyridin-2-yl)-4-(trifluoromethyl)isoindolin-1-one]	1 to 10
Cn1cnnc1-c1cnn(C)c1-c1cc(Cl)nc(N2Cc3c(cccc3C(F)(F)F)C2=O)c1 [AAN-7, 2-(6-Chloro-4-(1-methyl-4-(4-methyl-4H-1,2,4-triazol-3-yl)-1H-pyrazol-5-yl)pyridin-2-yl)-4-(trifluoromethyl)isoindolin-1-one]	1 to 10
Cn1cnnc1-c1cnn(C)c1-c1cc(O)nc(N2Cc3c(cccc3C(F)(F)F)C2=O)c1 [AAO-1, 2-(6-Hydroxy-4-(1-methyl-4-(4-methyl-4H-1,2,4-triazol-3-yl)-1H-pyrazol-5-yl)pyridin-2-yl)-4-(trifluoromethyl)isoindolin-1-one]	10 to 50
Cn1cnnc1-c1ccccc1-c1cccc(NC(=O)c2cc(=O)[nH]c(C3CC3)n2)c1 [AAP-1, 2-Cyclopropyl-N-(2′-(4-methyl-4H-1,2,4-triazol-3-yl)-[1,1′-biphenyl]-3-yl)-6-oxo-1,6-dihydropyrimidine-4-carboxamide]	1 to 10
Cn1cnnc1-c1ccccc1-c1cccc(N2Cc3c(cc(CN4CCC5(CC5)C4)cc3C(F)(F)F)C2=O)c1 [AAQ-1, 6-((5-Azaspiro [2.4]heptan-5-yl)methyl)-2-(2′-(4-methyl-4H-1,2,4-triazol-3-yl)-[1,1′-biphenyl]-3-yl)-4-(trifluoromethyl)isoindolin-1-one]	≤ 0.2
CCOc1cc(-c2ccccc2-c2nncn2C)cc(N2Cc3c(cccc3C(F)(F)F)C2=O)c1 [AAR-5, 2-(5-Ethoxy-2′-(4-methyl-4H-1,2,4-triazol-3-yl)-[1,1′-biphenyl]-3-yl)-4-(trifluoromethyl) isoindolin-1-one]	0.2 to 1
Cn1c(O)nnc1-c1cnccc1-c1cccc(N2Cc3c(cccc3C(F)(F)F)C2=O)c1 [AAS-6, 2-(3-(3-(5-Hydroxy-4-methyl-4H-1,2,4-triazol-3-yl)pyridin-4-yl)phenyl)-4-(trifluoromethyl)isoindolin-1-one]	10 to 50
Cn1cnnc1-c1ccccc1-c1cc(Cl)nc(N2Cc3c(cccc3C(F)(F)F)C2=O)c1 [AAT-1, 2-(6-Chloro-4-(2-(4-methyl-4H-1,2,4-triazol-3-yl)phenyl)pyridin-2-yl)-4-(trifluoromethyl)isoindolin-1-one]	0.2 to 1
CCNc1cc(-c2ccccc2-c2nncn2C)cc(N2Cc3c(cccc3C(F)(F)F)C2=O)n1 [AAU-1, 2-(6-(Ethylamino)-4-(2-(4-methyl-4H-1,2,4-triazol-3-yl)phenyl)pyridin-2-yl)-4-(trifluoromethyl)isoindolin-1-one]	≤ 0.2
Cc1nc[nH]c1-c1ccccc1-c1cccc(N2Cc3c(cccc3C(F)(F)F)C2=O)c1 [AAV-6, 2-(2′-(4-Methyl-1H-imidazol-5-yl)-[1,1′-biphenyl]-3-yl)-4-(trifluoromethyl)isoindolin-1-one]	1 to 10
Cn1cnnc1-c1cnn(C)c1-c1cc(NS(C)(=O)=O)nc(N2Cc3c(cccc3C(F)(F)F)C2=O)c1 [AAW-2, N-(4-(1-Methyl-4-(4-methyl-4H-1,2,4-triazol-3-yl)-1H-pyrazol-5-yl)-6-(1-oxo-4-(trifluoromethyl)isoindolin-2-yl)pyridin-2-yl)methanesulfonamide]	1 to 10
Cn1ncnc1-c1ccccc1-c1cccc(N2Cc3c(cccc3C(F)(F)F)C2=O)c1 [AAX-2, 2-(2′-(1-Methyl-1H-1,2,4-triazol-5-yl)-[1,1′-biphenyl]-3-yl)-4-(trifluoromethyl)isoindolin-1-one]	10 to 50
Cn1cnnc1-c1cnccc1-c1cccc(N2Cc3c(cccc3C(F)(F)F)C2=O)c1 [AAY-6, 2-[3-[3-(4-Methyl-1,2,4-triazol-3-yl)-pyridin-4-yl]-phenyl]-4-(trifluoromethyl)-3H-isoindol-1-one]	1 to 10
Cc1conc1-c1ccccc1-c1cccc(N2Cc3c(cccc3C(F)(F)F)C2=O)c1 [AAZ-7, 2-(2′-(4-Methylisoxazol-3-yl)-[1,1′-biphenyl]-3-yl)-4-(trifluoromethyl)isoindolin-1-one]	1 to 10
C[C@H]1CN(Cc2cc3c(c(C(F)(F)F)c2)CN(c2cccc(-c4ccccc4-c4nncn4C)c2)C3=O)CCO1 [AB-2, (S)-2-(2′-(4-Methyl-4H-1,2,4-triazol-3-yl)-[1,1′-biphenyl]-3-yl)-6-((2-methylmorpholino)methyl)-4-(trifluoromethyl)isoindolin-1-one]	≤ 0.2
O=C1c2cccc(C(F)(F)F)c2CN1c1cccc(-c2ccccc2-c2nnco2)c1 [ABA-4, 2-(2′-(1,3,4-Oxadiazol-2-yl)-[1,1′-biphenyl]-3-yl)-4-(trifluoromethyl)isoindolin-1-one]	10 to 50
Cn1cnnc1-c1ccncc1-c1cccc(N2Cc3c(cccc3C(F)(F)F)C2=O)c1 [ABB-5, 2-[3-[4-(4-Methyl-1,2,4-triazol-3-yl)pyridin-3-yl]phenyl]-4-(trifluoromethyl)-3H-isoindol-1-one]	1 to 10
CCNc1cc(-c2c(-c3nncn3C)cnn2C)cc(N2Cc3c(cc(CN4CCC5(CC5)C4)cc3C(F)(F)F)C2=O)n1 [ABC-7, 6-((5-Azaspiro [2.4]heptan-5-yl)methyl)-2-(6-(ethylamino)-4-(1-methyl-4-(4-methyl-4H-1,2,4-triazol-3-yl)-1H-pyrazol-5-yl)pyridin-2-yl)-4-(trifluoromethyl)isoindolin-1-one]	< 0.2
